Results on ten molecules are retold here after US6043275A, “3,7-dithiaprostanoic acid derivative” (Ono Pharmaceutical Co., Ltd., priority 1998, dated 2000).

The structures appear in SMILES notation.

One assay addresses T1, mouse EP4 (Mus musculus, UniProt P32240).
T1 construct: expressed in transfected cells; host or cells: CHO cells (membrane fraction)
In words: Binding assay using cell expressing the prostanoid receptor subtypes (EP4). As to conditions: more polar isomer; membrane fraction of CHO cell expressing mouse EP4; [3H]-PGE2 2.5 nM; 1 hour, room temperature; pH 6.0; read-out: dissociation constant Ki (μM) EP4. The method, then:
For example, in a standard laboratory test, such effects of the compound of the present invention were confirmed by binding assay using cell expressing the prostanoid receptor subtypes. (i) Binding assay using cell expressing the prostanoid receptor subtypes The preparation of membrane fraction was carried out according to the method of Sugimoto et al [J. Biol. […] The standard assay mixture containing membrane fraction (0.5 mg/ml), [^3 H]-PGE2 in a final volume of 200 μl was incubated for 1 hour at room temperature. The reaction was terminated by addition of 3 ml of ice-cold buffer. The mixture was rapidly filtered through a glass filter (GF/B). The radioactivity associated with the filter was measured by liquid scintillation counter. Kd and Bmax values were determined from Scatchard plots [Ann. N.Y. Acad. Sci., 51, 660 (1949)]. Non-specific binding was calculated as the amount bond in the presence of an excess (2.5 μM) of unlabeled PGE2. In the experiment for competition of specific [^3 H]-PGE2 binding by the compounds of the present invention, [^3 H]-PGE2 was added at a concentration of 2.5 nM and the compound of the present invention was added at a various concentration. The following buffer was used in all reactions. Buffer: 10 mM potassium phosphate (pH 6.0), 1 mM EDTA, 10 mM MgCl2, 0.1 M NaCl The dissociation constant (Ki) of each compound was calculated by the following equation.

The target of another assay is T2, mouse EP3 α (Mus musculus, UniProt P30557).
T2 construct: expressed in transfected cells; host or cells: CHO cells (membrane fraction)
T2 sequence (P30557 1-365): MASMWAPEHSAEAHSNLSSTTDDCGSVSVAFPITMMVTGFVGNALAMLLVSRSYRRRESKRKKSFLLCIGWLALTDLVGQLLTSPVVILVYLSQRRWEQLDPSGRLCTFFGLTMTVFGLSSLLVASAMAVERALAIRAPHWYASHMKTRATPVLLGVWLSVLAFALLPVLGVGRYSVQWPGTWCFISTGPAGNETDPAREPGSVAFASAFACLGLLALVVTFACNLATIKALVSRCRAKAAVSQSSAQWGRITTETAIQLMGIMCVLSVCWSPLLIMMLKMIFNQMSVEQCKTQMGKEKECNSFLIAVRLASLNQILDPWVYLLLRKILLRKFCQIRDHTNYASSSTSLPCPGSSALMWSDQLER
In words: Binding assay using cell expressing the prostanoid receptor subtypes (EP3α). As to conditions: more polar isomer; membrane fraction of CHO cell expressing mouse EP3α; [3H]-PGE2 2.5 nM; 1 hour, room temperature; pH 6.0; read-out: dissociation constant Ki (μM) EP3α. The method, then:
For example, in a standard laboratory test, such effects of the compound of the present invention were confirmed by binding assay using cell expressing the prostanoid receptor subtypes. (i) Binding assay using cell expressing the prostanoid receptor subtypes
The preparation of membrane fraction was carried out according to the method of Sugimoto et al [J. Biol. Chem. 267, 6463-6466 (1 992)], using CHO cell expressing prostanoid receptor subtype (mouse EP3 α, EP4).
The standard assay mixture containing membrane fraction (0.5 mg/ml), [^3 H]-PGE2 in a final volume of 200 μl was incubated for 1 hour at room temperature. The reaction was terminated by addition of 3 ml of ice-cold buffer. The mixture was rapidly filtered through a glass filter (GF/B). The radioactivity associated with the filter was measured by liquid scintillation counter.
Kd and Bmax values were determined from Scatchard plots [Ann. N.Y. Acad. Sci., 51, 660 (1949)]. Non-specific binding was calculated as the amount bond in the presence of an excess (2.5 μM) of unlabeled PGE2. In the experiment for competition of specific [^3 H]-PGE2 binding by the compounds of the present invention, [^3 H]-PGE2 was added at a concentration of 2.5 nM and the compound of the present invention was added at a various concentration.
The following buffer was used in all reactions. Buffer: 10 mM potassium phosphate (pH 6.0), 1 mM EDTA, 10 mM MgCl2, 0.1 M NaCl
The dissociation constant (Ki) of each compound was calculated by the following equation.

T1 sequence (P32240 whole entry): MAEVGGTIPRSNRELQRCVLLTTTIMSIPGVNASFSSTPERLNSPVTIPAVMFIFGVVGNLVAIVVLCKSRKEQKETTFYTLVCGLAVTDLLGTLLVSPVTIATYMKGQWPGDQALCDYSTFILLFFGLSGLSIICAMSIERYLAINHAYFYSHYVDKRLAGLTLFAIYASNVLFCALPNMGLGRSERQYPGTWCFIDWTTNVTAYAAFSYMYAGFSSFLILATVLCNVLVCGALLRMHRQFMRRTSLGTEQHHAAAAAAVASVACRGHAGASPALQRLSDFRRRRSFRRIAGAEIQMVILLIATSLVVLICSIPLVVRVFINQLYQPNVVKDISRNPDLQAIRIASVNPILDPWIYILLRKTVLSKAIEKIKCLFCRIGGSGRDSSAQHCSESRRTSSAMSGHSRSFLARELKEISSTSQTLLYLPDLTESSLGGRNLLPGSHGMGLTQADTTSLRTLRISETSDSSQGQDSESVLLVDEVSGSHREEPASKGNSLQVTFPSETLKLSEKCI

One may read the Ki as the dissociation constant of the complex between target and ligand, obtained from inhibition or displacement. Take `O=C(O)CSCCCS[C@H]1C(=O)C[C@@H](O)[C@@H]1/C=C/C(O)Cc1cccc(C#Cc2ccccc2)c1` (single isomer, unassigned) [Example 2(bbb), 11 α, 15-dihydroxy-9-oxo-16-(3-phenylethynylphenyl)-17,18,19,20-tetranor-3,7-dithiaprost-13E-enoic acid]: the Ki at mouse EP4 is 0.0003 µM; on mouse EP3 α, 0.23 µM.
For `COc1cccc(CC(O)/C=C/[C@H]2[C@H](O)CC(=O)[C@@H]2SCCCSCC(=O)O)c1` (single isomer, unassigned) [Example 2(f), 11 α, 15-dihydroxy-9-oxo-16-(3-methoxyphenyl)-17,18,19,20-tetranor-3,7-dithiaprost-13E-enoic acid], in that order: 0.0099 µM and 0.51 µM.
`O=C(O)CSCCCS[C@H]1C(=O)C[C@@H](O)[C@@H]1/C=C/C(O)Cc1cccc(-c2ccco2)c1` (single isomer, unassigned) [Example 2(ii), 11 α, 15-dihydroxy-9-oxo-16-[3-(2-furyl)phenyl]-17,18,19,20-tetranor-3,7-dithiaprost-13E-enoic acid]: the figures for the Ki at mouse EP4 and on mouse EP3 α were 0.0028 µM and 0.25 µM, respectively.
As for `COc1ccc(CC(O)/C=C/[C@H]2[C@H](O)CC(=O)[C@@H]2SCCCSCC(=O)O)cc1Cl` (single isomer, unassigned) [Example 2(l), 11 α, 15-dihydroxy-9-oxo-16-(4-methoxy-3-chlorophenyl)-17,18,19,20-tetranor-3,7-dithiaprost-13E-enoic acid], the inhibitory constant (Ki) at mouse EP4 was 0.011 µM; at mouse EP3 α, 2.2 µM.
For `C=CCOCc1cccc(CC(O)/C=C/[C@H]2[C@H](O)CC(=O)[C@@H]2SCCCSCC(=O)O)c1` (single isomer, unassigned) [Example 2(lll), 11 α, 15-dihydroxy-9-oxo-16-[3-(2-propenyloxymethyl)phenyl]-17,18,19,20-tetranor-3,7-dithiaprost-13E-enoic acid], in that order: 0.0014 µM and 6.2 µM.
Take `O=C(O)CSCCCS[C@H]1C(=O)C[C@@H](O)[C@@H]1/C=C/C(O)Cc1cccc(COC2CCCCC2)c1` (single isomer, unassigned) [Example 2(mmm), 11 α, 15-dihydroxy-9-oxo-16-(3-cyclohexyloxymethylphenyl)-17,18,19,20-tetranor-3,7-dithiaprost-13E-enoic acid]: the inhibition constant Ki at mouse EP4 is 0.04 µM; on mouse EP3 α it was above 10 µM.
For the molecule `O=C(O)CSCCCS[C@H]1C(=O)C[C@@H](O)[C@@H]1/C=C/C(O)Cc1cccc(-c2ccccc2)c1` (single isomer, unassigned) [Example 2(r), 11 α, 15-dihydroxy-9-oxo-16-(biphenyl-3-yl)-17,18,19,20-tetranor-3,7-dithiaprost-13E-enoic acid], the Ki at mouse EP4 worked out at 0.001 µM; at mouse EP3 α, 0.97 µM.
As to `O=C(O)CSCCCS[C@H]1C(=O)C[C@@H](O)[C@@H]1/C=C/C(O)Cc1cccc(COc2ccccc2)c1` (single isomer, unassigned) [Example 2(rr), 11 α, 15-dihydroxy-9-oxo-16-(3-phenyloxymethylphenyl)-17,18,19,20-tetranor-3,7-dithiaprost-13E-enoic acid], the Ki worked out at 0.0042 µM on mouse EP4 and 1.9 µM on mouse EP3 α.
Turning to `O=C(O)CSCCCS[C@H]1C(=O)C[C@@H](O)[C@@H]1/C=C/C(O)Cc1cccc(CCF)c1` (single isomer, unassigned) [Example 2(tt), 11 α, 15-dihydroxy-9-oxo-16-[3-(2-fluoroethyl)phenyl]-17,18,19,20-tetranor-3,7-dithiaprost-13E-enoic acid], the Ki at mouse EP4 was found to be 0.0065 µM; on mouse EP3 α, 0.9 µM.
The corresponding values for `COCc1cccc(C[C@H](O)/C=C/[C@H]2[C@H](O)CC(=O)[C@@H]2SCCCSCC(=O)O)c1` [Example 2, 11 α, 15 α-dihydroxy-9-oxo-16-(3-methoxymethylphenyl)-17,18,19,20-tetranor-3,7-dithiaprost-13E-enoic acid] are 0.0097 µM and 1.2 µM.
